Laboratory results reported in patent US5567805A, “The cellular receptor for the CS3 peptide of human immunodeficiency virus” (priority 1994, dated 1996).

What was measured:
[1] = system: CD4; experiment: CD4 expression on RH9 cells stimulated with TPA; type: cell-based, human
Experimental: (§1) FIG. 11. Cultures of RH9 cells were incubated with 10 ng/ml PMA (TPA) or 10 μg/ml antibody to the CD3 cell surface antigen or in medium alone. Comparisons are presented for each day of analysis for expression of CD4 (left panel) or CS3 binding (right panel). 0.50% of RH9 cells bound CS3-HSA-FITC. Relative to control cultures treatment with anti-CD3 increased CS3 domain expressing cells by 71% at 48 hours and 56% at 72 hours, while TPA increased CS3-binding by 32% at 72 hours. CS3-HSA-FITC fluorescence intensity, reflecting the number of receptors per cell, increased while CD4 expression decreased in intensity and number of positive cells (8% at 24 hours).

[2] = system: CS3 binding domain; experiment: CS3 binding on RH9 cells stimulated with anti-CD3 or TPA; type: cell-based, human
Experimental: as §1

CCCCCCCCCCCCCC(=O)O[C@@H]1[C@@H](C)[C@@]2(O)[C@@H](C=C(CO)C[C@]3(O)C(=O)C(C)=C[C@@H]23)[C@@H]2C(C)(C)[C@]12OC(C)=O [TPA, tetraphorbol 13-myristyl acetate]
CD4 expression after treatment [1]: lost | CS3 binding / receptor density after stimulation [2]: CS3 binding was increased | increase in CS3 domain expressing cells / CS3-binding relative to control cultures ([2]; 72 hours): 32%
